According to PubChem BioAssay AID330 (DTP/NCI, 2004):
Inconclusive results and toxic doses are left out.

Tested on: P388 leukemia ip, CD2F1 mice, survival T/C
Assay: NCI In Vivo Anticancer Drug Screen. Data for tumor model P388 Leukemia (intraperitoneal) in CD2F1 (CDF1) mice
Details: endpoint: median survival time, higher = longer survival
In short: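 Mice carrying the transplanted tumor received test compound or vehicle. Survival was recorded in each group, and the value is the treated-group measurement divided by that of the vehicle-treated control group.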

[1] = dose: 50.0 mg/kg/injection, schedule: Q01DX005 (ip), vehicle: Klucel (hydroxypropylcellulose) (HPC)
[2] = dose: 100.0 mg/kg/injection, schedule: Q01DX005 (ip), vehicle: Klucel (hydroxypropylcellulose) (HPC)
[3] = dose: 200.0 mg/kg/injection, schedule: Q01DX005 (ip), vehicle: Klucel (hydroxypropylcellulose) (HPC)
[4] = dose: 60.0 mg/kg/injection, schedule: Q01DX005 (ip), vehicle: saline with Tween-80
[5] = dose: 120.0 mg/kg/injection, schedule: Q01DX005 (ip), vehicle: saline with Tween-80
[6] = dose: 240.0 mg/kg/injection, schedule: Q01DX005 (ip), vehicle: saline with Tween-80
[7] = dose: 25.0 mg/kg/injection, schedule: Q01DX009 (ip), vehicle: saline with Tween-80
[8] = dose: 50.0 mg/kg/injection, schedule: Q01DX009 (ip), vehicle: saline with Tween-80
[9] = dose: 100.0 mg/kg/injection, schedule: Q01DX009 (ip), vehicle: saline with Tween-80
[10] = dose: 200.0 mg/kg/injection, schedule: Q01DX009 (ip), vehicle: saline with Tween-80
[11] = dose: 60.0 mg/kg/injection, schedule: Q01DX005 (ip), vehicle: Klucel (hydroxypropylcellulose) (HPC)
[12] = dose: 120.0 mg/kg/injection, schedule: Q01DX005 (ip), vehicle: Klucel (hydroxypropylcellulose) (HPC)
[13] = dose: 240.0 mg/kg/injection, schedule: Q01DX005 (ip), vehicle: Klucel (hydroxypropylcellulose) (HPC)
[14] = dose: 50.0 mg/kg/injection, schedule: Q01DX005 (ip), vehicle: saline with Tween-80
[15] = dose: 100.0 mg/kg/injection, schedule: Q01DX005 (ip), vehicle: saline with Tween-80
[16] = dose: 200.0 mg/kg/injection, schedule: Q01DX005 (ip), vehicle: saline with Tween-80

In the case of `CC12CC(=O)C3C(CCC4CC(OS(=O)(=O)O)CCC43C)C1CC1OC(=O)C=C12` (configuration not stated), the T/C [1] is reported as 98 % of control, the T/C [2] is reported as 100 % of control and the T/C [3] is reported as 94 % of control.

In the case of `CC1OC(=O)c2cc3ccccc3nc21` (configuration not stated), the T/C [4] is reported as 93 % of control, the T/C [5] is reported as 100 % of control and the T/C [6] is reported as 93 % of control.

`CNc1cc(=O)[nH]c(-c2ccccc2)n1` was tested, and the T/C (dose: 45.0 mg/kg/injection, schedule: Q01DX009 (ip), vehicle: saline with Tween-80) was 89 % of control, the T/C (dose: 90.0 mg/kg/injection, schedule: Q01DX009 (ip), vehicle: saline with Tween-80) was 97 % of control and the T/C (dose: 180.0 mg/kg/injection, schedule: Q01DX009 (ip), vehicle: saline with Tween-80) was 105 % of control.

With `COc1cc2c3cc1Oc1c(O)c(OC)cc4c1[C@H](Cc1ccc(cc1)Oc1cc(ccc1O)C[C@H]3N(C)CC2)N(C)CC4` the T/C (dose: 1.25 mg/kg/injection, schedule: Q01DX009 (ip), vehicle: water) was 100 % of control, the T/C (dose: 2.5 mg/kg/injection, schedule: Q01DX009 (ip), vehicle: water) was 101 % of control and the T/C (dose: 5.0 mg/kg/injection, schedule: Q01DX009 (ip), vehicle: water) was 97 % of control. The T/C (dose: 10.0 mg/kg/injection, schedule: Q01DX009 (ip), vehicle: water) was 101 % of control, the T/C (dose: 20.0 mg/kg/injection, schedule: Q01DX009 (ip), vehicle: other) was 103 % of control and the T/C (dose: 20.0 mg/kg/injection, schedule: Q01DX009 (ip), vehicle: water) was 94 % of control. For the same compound, the T/C (dose: 40.0 mg/kg/injection, schedule: Q01DX009 (ip), vehicle: other) was 94 % of control and the T/C (dose: 80.0 mg/kg/injection, schedule: Q01DX009 (ip), vehicle: other) was 109 % of control.

With `COc1cc(C)ccc1C1OC(=O)c2c1ccc(OC)c2OC` (configuration not stated) the T/C [7] was 106 % of control, the T/C [8] was 101 % of control and the T/C [9] was 97 % of control. For the same compound, the T/C [10] was 108 % of control.

In the case of `COC(=O)C1=NC(=S)N=C(C(=O)OC)C12Cc1ccccc1C2=O`, the T/C [11] is reported as 92 % of control, the T/C [12] is reported as 93 % of control and the T/C [13] is reported as 102 % of control.

In the case of `CN1C(=O)C2(OC(N)=C(O)C2=O)c2ccccc21` (configuration not stated), the T/C [1] is reported as 99 % of control, the T/C [2] is reported as 96 % of control and the T/C [3] is reported as 97 % of control.

`CCCN(CCC)c1nsc(N)n1` was tested, and the T/C (dose: 7.5 mg/kg/injection, schedule: Q01DX009 (ip), vehicle: saline with Tween-80) was 113 % of control, the T/C (dose: 15.0 mg/kg/injection, schedule: Q01DX009 (ip), vehicle: saline with Tween-80) was 113 % of control and the T/C (dose: 30.0 mg/kg/injection, schedule: Q01DX009 (ip), vehicle: saline with Tween-80) was 118 % of control.

In the case of `Cc1ccc(S(=O)(=O)N/N=C/c2ccc(O)c(Cl)c2)cc1`, the T/C (dose: 12.5 mg/kg/injection, schedule: Q01DX005 (ip), vehicle: distilled water + Tween-80) is reported as 102 % of control, the T/C (dose: 25.0 mg/kg/injection, schedule: Q01DX005 (ip), vehicle: distilled water + Tween-80) is reported as 102 % of control and the T/C (dose: 50.0 mg/kg/injection, schedule: Q01DX005 (ip), vehicle: distilled water + Tween-80) is reported as 98 % of control. For the same compound, the T/C (dose: 100.0 mg/kg/injection, schedule: Q01DX005 (ip), vehicle: distilled water + Tween-80) was 100 % of control and the T/C (dose: 200.0 mg/kg/injection, schedule: Q01DX005 (ip), vehicle: distilled water + Tween-80) was 99 % of control.

For `Cc1ccc(S(=O)CC(O)COCc2ccccc2)cc1` (configuration not stated), the T/C [8] was 89 % of control, the T/C [9] was 94 % of control and the T/C [10] was 91 % of control.

With `CCN(C)C12CN3CN(CN(C3)C1)C2` the T/C (dose: 100.0 mg/kg/injection, schedule: Q01DX001 (ip), vehicle: saline) was 101 % of control, the T/C (dose: 200.0 mg/kg/injection, schedule: Q01DX001 (ip), vehicle: saline) was 110 % of control and the T/C (dose: 400.0 mg/kg/injection, schedule: Q01DX001 (ip), vehicle: saline) was 102 % of control.

With `NC(=S)N/N=C\c1nccc2c(C(F)(F)F)cccc12` the T/C (dose: 1.5 mg/kg/injection, schedule: Q04DX003 (ip), vehicle: saline with Tween-80) was 91 % of control, the T/C (dose: 3.0 mg/kg/injection, schedule: Q04DX003 (ip), vehicle: saline with Tween-80) was 95 % of control and the T/C (dose: 6.0 mg/kg/injection, schedule: Q04DX003 (ip), vehicle: saline with Tween-80) was 99 % of control. The T/C (dose: 12.0 mg/kg/injection, schedule: Q04DX003 (ip), vehicle: saline with Tween-80) was 91 % of control.

With `C=C1CCC2C1C1C(C(C)C)CCC21C` (configuration not stated) the T/C (dose: 12.5 mg/kg/injection, schedule: Q01DX009 (ip), vehicle: saline with Tween-80) was 92 % of control, the T/C [7] was 96 % of control and the T/C [8] was 93 % of control.

With `CC(C)c1cccc(C(C)C)c1NC(=O)CCc1n[nH]c(=S)o1` the T/C [14] was 105 % of control, the T/C [15] was 106 % of control and the T/C [16] was 105 % of control.

In the case of `Cc1ccc(C2=C/C(=C/c3ccc(N(CCC#N)CCC#N)cc3)C(=O)O2)cc1C`, the T/C (dose: 100.0 mg/kg/injection, schedule: Q01DX001 (ip), vehicle: saline with Tween-80) is reported as 94 % of control, the T/C (dose: 200.0 mg/kg/injection, schedule: Q01DX001 (ip), vehicle: saline with Tween-80) is reported as 90 % of control and the T/C (dose: 400.0 mg/kg/injection, schedule: Q01DX001 (ip), vehicle: saline with Tween-80) is reported as 97 % of control.

With `COc1ccc(NC(=O)c2ccc3c(c2)OCO3)cc1` the T/C (dose: 12.5 mg/kg/injection, schedule: Q01DX009 (ip), vehicle: other) was 108 % of control, the T/C (dose: 25.0 mg/kg/injection, schedule: Q01DX009 (ip), vehicle: other) was 103 % of control and the T/C (dose: 50.0 mg/kg/injection, schedule: Q01DX009 (ip), vehicle: other) was 94 % of control. For the same compound, the T/C (dose: 100.0 mg/kg/injection, schedule: Q01DX009 (ip), vehicle: other) was 95 % of control and the T/C (dose: 200.0 mg/kg/injection, schedule: Q01DX009 (ip), vehicle: other) was 91 % of control.

In the case of `Oc1c(Br)cc(Br)c2ccccc12`, the T/C [9] is reported as 105 % of control, the T/C [10] is reported as 114 % of control and the T/C (dose: 400.0 mg/kg/injection, schedule: Q01DX009 (ip), vehicle: saline with Tween-80) is reported as 111 % of control.

For `CCOC(=O)C1=C(C(=O)c2ccc(C)cc2)C(c2ccc(Cl)cc2Cl)C(C(=O)c2ccc(C)cc2)=C(C(=O)OCC)N1`, the T/C [4] was 89 % of control and the T/C [5] was 98 % of control.

For `CN1CCN(Cc2ccc(Nc3ccccc3)cc2)CC1`, the T/C [11] was 105 % of control, the T/C [12] was 108 % of control and the T/C [13] was 98 % of control.

`CCCCCCCCCCCC(O)CCCCC` (configuration not stated) was tested, and the T/C (dose: 100.0 mg/kg/injection, schedule: Q04DX003 (ip), vehicle: other) was 100 % of control, the T/C (dose: 200.0 mg/kg/injection, schedule: Q04DX003 (ip), vehicle: other) was 100 % of control and the T/C (dose: 400.0 mg/kg/injection, schedule: Q04DX003 (ip), vehicle: other) was 100 % of control.

In the case of `COC(=O)/C(C)=N/SC(c1ccccc1)(c1ccccc1)c1ccccc1`, the T/C [14] is reported as 102 % of control, the T/C [15] is reported as 104 % of control and the T/C [16] is reported as 98 % of control.

With `C/C(N=NC(=S)N1CCCCC1C)=C1\C=CC=CN1O` (configuration not stated) the T/C [14] was 110 % of control, the T/C [15] was 97 % of control and the T/C [16] was 104 % of control.

`CCC1(O)CC(OC2CC(N(C)C)C(OC3CC(O)C(OC4CCC(=O)C(C)O4)C(C)O3)C(C)O2)c2c(cc3c(c2O)C(=O)c2c(O)ccc(O)c2C3=O)C1C(=O)OC` (configuration not stated) was tested, and the T/C (dose: 0.78 mg/kg/injection, schedule: Q01DX009 (ip), vehicle: saline with Tween-80) was 178 % of control, the T/C (dose: 1:4.0 dilution, schedule: Q01DX009 (ip), vehicle: saline) was 241 % of control and the T/C (dose: 1:8.0 dilution, schedule: Q01DX009 (ip), vehicle: saline) was 190 % of control.

For `CS(=O)CC(C)(O)C1OC(=O)C=C2C3(C)CC4OC4C4(C)C(=O)OC(C34)C3OC231` (configuration not stated), the T/C (dose: 2.5 mg/kg/injection, schedule: Q01DX009 (ip), vehicle: DMSO) was 108 % of control and the T/C (dose: 20.0 mg/kg/injection, schedule: Q01DX009 (ip), vehicle: DMSO) was 151 % of control.

In the case of `CC(=O)OC1(C)SCCN1C(N)=O` (configuration not stated), the T/C (dose: 50.0 mg/kg/injection, schedule: Q01DX009 (ip), vehicle: Klucel (hydroxypropylcellulose) (HPC)) is reported as 99 % of control, the T/C (dose: 100.0 mg/kg/injection, schedule: Q01DX009 (ip), vehicle: Klucel (hydroxypropylcellulose) (HPC)) is reported as 104 % of control and the T/C (dose: 200.0 mg/kg/injection, schedule: Q01DX009 (ip), vehicle: Klucel (hydroxypropylcellulose) (HPC)) is reported as 100 % of control.

`N#CCCOCNC(=O)NCOCCC#N` was tested, and the T/C [4] was 96 % of control, the T/C [5] was 97 % of control and the T/C [6] was 90 % of control.
